# How the values were obtained:
# [1] = tested on: MDA-MB-231 xenografts in Tg(fli1:EGFP) zebrafish embryos; experiment: Zebrafish MDA-MB-231 xenograft model; type: in vivo; settings: for reduction of tumor mass vs untreated control: 3 days post injection
# Procedure: The human breast carcinoma MDA-MB 231 cell line was cultured in DMEM:Ham’s 12 (1:1) medium (Sigma-Aldrich, St. Louis, MO, USA) supplemented with 10% FBS (Sigma-Aldrich, St. Louis, MO, USA), 100 µg/mL streptomycin, and 100 U/mL penicillin (Sigma-Aldrich, St. Louis, MO, USA), and grown as a monolayer in humidified atmosphere of 95% air and 5% CO2 at 37 °C. Prior to microinjection, the cells were washed once with PBS and trypsinized (0.25% trypsin/0.53 mM EDTA) (Sigma-Aldrich, St. Louis, MO, USA) to obtain a single-cell suspension. After centrifugation at 1200 rpm for 5 min, the cells were resuspended in serum-free DMEM medium and labeled with 2 µM Cell Tracker TM Red CMTPX (Thermo Fisher Scientific) according to the manufacturer’s instructions.
# The zebrafish xenografts with human MDA-MB-231 cells were established according to the previously described procedure with slight modification. A day before the microinjections, Tg(fli1:EGFP) embryos kept at 28 °C were manually dechorionated. At the 48 hpf stage, 5 nL of MDA-MB 231 cell suspension containing 150 labeled cells was microinjected into the yolk of anesthetized embryos by a pneumatic picopump (PV820, World Precision Instruments, Sarasota, FL, USA). The exact number of cells was confirmed by dispensing the injected volume onto a microscope slide and by visual counting. After injection, embryos were incubated, to recover, for at least for 60 min at 28 °C, dead embryos were removed, while alive embryos were transferred into 24-well plates containing 1 mL of E3 water and 10 embryos per well. The injected xenografts were treated with the three doses of 8b (3.13, 6.25, and 12.5 µM), and maintained at 31–32 °C by 120 hpf. DMSO (0.25%) was used as a negative control. The survival and development of the xenografted embryos was recorded every day until the end of experiment (3 days post injection = 3 dpi), at which point, anesthetized xenografts were processed by fluorescent microscopy. The tumor size, number of xenografts with disseminated tumor cells in the caudal region, and number of disseminated cells per embryo were determined. The tumor size was determined by the fluorescent images using ImageJ. The experiment was repeated two times using 10 embryos per concentration.
# [2] = Acute and developmental toxicity in zebrafish embryos; type: in vivo, Danio rerio; settings: wild type (AB), zebrafish (Danio rerio), in vivo, other: exposure of embryos in E3 medium, evaluated at 120 hpf; for LC50: embryos treated at 6 hpf; for EC50: teratogenicity, cardiotoxicity, hepatotoxicity, treated at 6 hpf
# Procedure: (§1) Embryos of wild type (AB) and transgenic Tg(fli1:EGFP) and Tg(-2.8fabp10a:EGFP) zebrafish (Danio rerio) lines were kindly provided by Dr. Ana Cvejić (Wellcome Trust Sanger Institute, Cambridge, UK) and raised to adult stage in a temperature- and light-controlled zebrafish facility at 28 °C and standard 14–10 h light–dark photoperiod. Adult fish were regularly fed with commercial dry food (SDS300 granular food; Special Diet Services, Essex, UK; and TetraMinTM flakes, Tetra, Melle, Germany) twice per day and Artemia nauplii daily. All experiments involving zebrafish were performed in compliance with the European directive 2010/63/EU and the ethical guidelines of the Guide for Care and Use of Laboratory Animals of the Institute of Molecular Genetics and Genetic Engineering, University of Belgrade.
# (§2) Toxicity evaluation of the tested compounds in the zebrafish model was carried out following the general rules of the OECD Guidelines for the Testing of Chemicals (OECD, 2013, Test No. 236), and procedures described in the literature. Briefly, wild type (AB) zebrafish produced by pair-wise mating were collected, washed of debris, and distributed into 24-well plates containing 10 embryos/well and 1 mL of E3 medium (5 mM NaCl, 0.17 mM KCl, 0.33 mM CaCl2, and 0.33 mM MgSO4·7H2O in distilled water), and raised at 28 °C.
# (§3) To assess acute (lethality), inner organ, and developmental (teratogenicity) toxicity, the embryos at the 6 h post-fertilization (hpf) stage were treated with six different concentrations of each tested compound (100, 50, 25, 12.5, 6.25, and 3.13 µM). Stock solutions of test substances were made in DMSO. Embryo water and DMSO (0.25%) were used as negative and […] controls, respectively. The experiment was performed three times using 20 embryos per concentration. Treated embryos were inspected for 22 toxicological parameters (Table S2) every day by 120 hpf upon a stereomicroscope (Carl Zeiss™ Stemi 508 doc Stereomicroscope, Jena, Germany). Dead embryos were discarded every 24 h. At 120 hpf, embryos were anesthetized by addition of 0.1% (w/v) tricaine solution (Sigma-Aldrich, St. Louis, MO, USA), photographed, and killed by freezing at −20 °C for ≥24 h.
# [3] = tested on: zebrafish (Danio rerio) embryos; experiment: as above; type: in vivo; settings: 50 µM
# Procedure: as §1, §2, §3
# MDA-MB-231 cells = experiment: Bicameral (transwell) migration assay; type: cell-based, human; settings: 24 h; 5 μM 8b, 10 μM 9b
# Procedure: To determine MDA-MB-231 cell migration and invasion cell capacities, Corning® Costar® Transwell® cell culture inserts with 8.0 μm pore polycarbonate filters (Sigma Aldrich, CLS3464) and Corning™ BioCoat™ Matrigel™ Invasion Chamber with Corning Matrigel Matrix™ cell culture inserts (Thermo fisher scientific, Waltham, MA, USA) respectively were used. Briefly, 6 × 10^4 cells in 200 μL were seeded in the upper chamber and the bottom chamber was filled with 800 μL of medium. After 24 h under indicated treatments, the remaining cells in the upper chamber were gently removed with a cotton swab, moistened with medium, and the inserts were carefully washed twice with 37 °C warmed PBS. Then, attached cells at the bottom side of the membrane were fixed by immersing in ice cold methanol for 2 min and stained with 0.1% crystal violet for 15 min at room temperature. Stained cells were photographed and quantified using NIH ImageJ software.
# MCF-7 cells = experiment: Wound healing assay; type: cell-based; settings: Homo sapiens, MCF7, 24 h, read-out: inhibition of wound closure compared to control
# Procedure: To determine MCF-7 cell migration properties, 1 × 10^5 cells were seeded in 24-well plates and cultured until confluent. Then, cell monolayers were scratched using a sterile 200 μL pipette tip, and cell cultures were allowed to grow for 24 h under the indicated treatments. At the end of incubation period, culture medium was removed and wells were washed twice with PBS, then, cells were fixed with ice-cold methanol and stained with 0.1% crystal violet. In addition, cell monolayers were fixed and stained just after scratching to represent zero time migration. Finally, cell migration into the scratch area was documented by inverted light microscopy and quantified using NIH ImageJ software.
Compound,"number of metastasis per embryo, fold lower than untreated ([1]; 3.13 µM, 3-day treatment)","reduction of number of embryos exhibiting metastases ([1]; 3.13 µM, 3-day treatment)",reduction of tumor mass vs untreated control ([1]; 3.13 µM),dissemination of MDA-MB-231 cells ([1]; 12.5 µM),reduction of tumor mass vs untreated control ([1]; 12.5 µM),ED50 (effective drug concentration reducing tumor mass by 50% in relation to the control) ([1]; 3-day treatment),"toxic side effects in xenografts ([1]; 3.13, 6.25 and 12.5 µM, 3-day treatment)",LC50 [2],EC50 [2],"embryos with teratogenicity, cardio- or hepatotoxicity [3]",anti-migratory property (% compared to control) (MDA-MB-231 cells),inhibition at 10 µM (MCF-7 cells)
"O=C(CCCCCCCN1CCN(C(c2ccccc2)c2ccccc2)CC1)NO [Compound 8b, 8-(4-(diphenylmethyl)-piperazin-1-yl)-N-hydroxyoctanamide]",up to 9.6 fold,50%,56.1 ± 5.2%,completely inhibited,almost complete reduction,2.67 µM,no toxic side effects were observed,> 100 µM,79.5 µM,none,,
"O=C(NO)c1ccc(CN2CCN(C(c3ccccc3)c3ccccc3)CC2)cc1 [Compound 9b, 4-(4-(diphenylmethyl)-piperazin-1-ylmethyl)-N-hydroxy-benzamide]",,,,,,,,> 100 µM,53.8 µM,32%,did not reduce,63.9%

# From PMC9785542, “Discovery of 1-Benzhydryl-Piperazine-Based HDAC Inhibitors with Anti-Breast Cancer Activity: Synthesis, Molecular Modeling, In Vitro and In Vivo Biological Evaluation” (Pharmaceutics, 2022)
